# Laboratory results: patent US20250320224A1 (DOMAIN THERAPEUTICS, priority 2022, published 2025)
# Target: T1, human PAR-2 (hPAR-2) receptor (Homo sapiens, UniProt P55085)
# T1 construct: expressed in HEK-293 cells in an endogenous manner; endogenous in cells; host or cells: HEK-293
# T1 sequence (P55085 26-397): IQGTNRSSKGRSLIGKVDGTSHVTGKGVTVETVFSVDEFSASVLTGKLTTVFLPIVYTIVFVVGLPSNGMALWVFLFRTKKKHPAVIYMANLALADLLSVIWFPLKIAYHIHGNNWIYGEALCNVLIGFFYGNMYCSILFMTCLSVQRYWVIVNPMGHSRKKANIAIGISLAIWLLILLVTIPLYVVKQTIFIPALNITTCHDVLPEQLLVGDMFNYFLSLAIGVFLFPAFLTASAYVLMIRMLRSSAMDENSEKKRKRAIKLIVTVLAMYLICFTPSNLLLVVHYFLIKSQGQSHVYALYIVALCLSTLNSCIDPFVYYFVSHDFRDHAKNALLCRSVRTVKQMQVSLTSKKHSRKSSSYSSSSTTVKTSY
# Experiment: In vitro human PAR-2 functional antagonist activity using calcium assays
# Format: cell-based
# Conditions: hPAR-2 endogenously expressed in HEK-293 cells; stimulated by 2-Furoyl-LIGRLO-NH2 peptide; Fluo4AM intracellular calcium, FLIPR Tetra
# How it was run: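 HEK-293 cells with endogenous hPAR-2 were loaded with Fluo4AM and read for intracellular Ca2+ on FLIPR. After 10 min with compound alone, cells were stimulated with 2-Furoyl-LIGRLO-NH2 at the concentration giving 80% of maximal response. Inhibition was then recorded over 5 min relative to buffer and agonist-only signals.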
row,IC50,Compound
1,< 0.5 µM,"CC1(C)CN(c2ccc(CC(=O)O)cn2)CCN1C(=O)c1ccc2c(n1)C1(CN2c2ccc(Cl)c(F)c2)CC(F)(F)C1 [Example 128, 2-(6-(4-(1′-(4-chloro-3-fluorophenyl)-3,3-difluoro-1′,2′-dihydrospiro[cyclobutane-1,3′-pyrrolo[3,2-b]pyridine]-5′-carbonyl)-3,3-dimethylpiperazin-1-yl)pyridin-3-yl)acetic acid]"
2,< 0.5 µM,"CC1(C)CN(c2ccc(CC(=O)O)cn2)CCN1C(=O)c1cnc2c(n1)C1(CCCC1)CN2c1ccc(Cl)c(F)c1 [Example 243, 2-(6-(4-(5′-(4-chloro-3-fluorophenyl)-5′,6′-dihydrospiro[cyclopentane-1,7′-pyrrolo[2,3-b]pyrazine]-2′-carbonyl)-3,3-dimethylpiperazin-1-yl)pyridin-3-yl)acetic acid]"
3,< 0.5 µM,"CC1CC2(C1)CN(c1ccc(Cl)c(F)c1)c1ccc(C(=O)N3CCN(c4ccc(CC(=O)O)cn4)CC3(C)C)nc12 (centres unmarked) [Example 154, 2-(6-(4-(1′-(4-chloro-3-fluorophenyl)-3-methyl-1′,2′-dihydrospiro[cyclobutane-1,3′-pyrrolo[3,2-b]pyridine]-5′-carbonyl)-3,3-dimethylpiperazin-1-yl)pyridin-3-yl)acetic acid]"
4,0.5 to 10 µM,"CO[C@@H]1CN(C(=O)c2ccc3c(n2)C(C)(C)CN3c2ccc(Cl)c(F)c2)CC[C@@H]1CC(=O)O [Example 98, 2-((3S,4R)-1-(1-(4-chloro-3-fluorophenyl)-3,3-dimethyl-2,3-dihydro-1H-pyrrolo[3,2-b]pyridine-5-carbonyl)-3-methoxypiperidin-4-yl)acetic acid]"
5,< 0.5 µM,"CC1(C)CN(c2ccc(F)c(Cl)c2)c2ncc(C(=O)N3CCN(c4ccc(CC(=O)O)cn4)CC3(C)C)nc21 [Example 205, 2-(6-(4-(5-(3-chloro-4-fluorophenyl)-7,7-dimethyl-6,7-dihydro-5H-pyrrolo[2,3-b]pyrazine-2-carbonyl)-3,3-dimethylpiperazin-1-yl)pyridin-3-yl)acetic acid]"
6,0.5 to 10 µM,"CC1(C)CN(c2ccc(Cl)c(F)c2)c2ccc(C(=O)N3CC[C@@H](c4ccccn4)[C@H](C(=O)O)C3)nc21 (relative stereo) [Example 138, (trans)-1-(1-(4-chloro-3-fluorophenyl)-3,3-dimethyl-2,3-dihydro-1H-pyrrolo[3,2-b]pyridine-5-carbonyl)-4-(pyridin-2-yl)piperidine-3-carboxylic acid]"
7,0.5 to 10 µM,"CC1(C)CN(c2ccc(Cl)c(F)c2)Cc2sc(C(=O)N3CCN(c4ccc(CC(=O)O)cn4)CC3(C)C)nc21 [Example 270, 2-(6-(4-(5-(4-chloro-3-fluorophenyl)-7,7-dimethyl-4,5,6,7-tetrahydrothiazolo[5,4-c]pyridine-2-carbonyl)-3,3-dimethylpiperazin-1-yl)pyridin-3-yl)acetic acid]"
8,> 10 µM,"CC1(C)CN(c2ccc(CC(=O)O)cn2)CCN1C(=O)c1cc2n(n1)C(C)(C)CCN2c1ccc(Cl)c(F)c1 [Example 179, 2-(6-(4-(4-(4-chloro-3-fluorophenyl)-7,7-dimethyl-4,5,6,7-tetrahydropyrazolo[1,5-a]pyrimidine-2-carbonyl)-3,3-dimethylpiperazin-1-yl)pyridin-3-yl)acetic acid]"
9,0.5 to 10 µM,"CC1(C)CN(c2ccsc2)c2ccc(C(=O)N3CCNC(=O)C3(C)C)nc21 [Example 11, 4-(3,3-dimethyl-1-(thiophen-3-yl)-2,3-dihydro-1H-pyrrolo[3,2-b]pyridine-5-carbonyl)-3,3-dimethylpiperazin-2-one]"
10,0.5 to 10 µM,"CC(C)(CO)NC(=O)c1ccc2c(n1)C(C)(C)CN2c1ccc(Cl)c(F)c1 [Example 51, 1-(4-chloro-3-fluorophenyl)-N-(1-hydroxy-2-methylpropan-2-yl)-3,3-dimethyl-2,3-dihydro-1H-pyrrolo[3,2-b]pyridine-5-carboxamide]"
11,< 0.5 µM,"CCC1(CC)CN(c2ccc(Cl)c(F)c2)c2ccc(C(=O)N3CCN(c4cc(C)c(C(=O)O)c(C)n4)CC3(C)C)nc21 [Example 103, 6-(4-(1-(4-chloro-3-fluorophenyl)-3,3-diethyl-2,3-dihydro-1H-pyrrolo[3,2-b]pyridine-5-carbonyl)-3,3-dimethylpiperazin-1-yl)-2,4-dimethylnicotinic acid]"
